Reference: patent US20040185509A1, “Eosinophil prostaglandin d2 receptor assays” (priority 2001, published 2004)
“Also recorded” adds a separate entry of the source.

Experiments:
[1] = test system: purified human eosinophils; experiment: Eosinophil morphology change by light microscopy; format: cell-based
Experimental: Purified eosinophils were incubated in RPMI 1640 media supplemented with 0.5% fetal bovine serum in the presence of the compound to be tested for 15 minutes in a 24-well dish. Light microscopy was performed with an inverted Axiovert 25 (Zeiss) and images were obtained with a 35 mm SLR camera (ARIA CONTAX, Kyocera corporation) using Kodak Elite Chrome 160T film.
Vehicle-treated eosinophils were spherical and only weakly adhered to the culture dish. […] This effect was seen on the majority of eosinophils from all donors analysed (n=20).

[2] = test system: purified human eosinophils; experiment: Eosinophil degranulation (release of ECP into the media, radioimmunoassay); format: cell-based; details: for release of ECP from eosinophils (result in words): FIG. 4: DK-PGD2 100 nM, BW245C 1 μM, FP and EP agonists 1 μM
Experimental: Purified eosinophils were resuspended at 3.0×10^6 cells per ml in RPMI 1640 medium supplemented with 0.5% (v/v) fetal bovine serum. Compounds to be tested were diluted 1:1000 to their final concentration in 300 μl of cells in a 1.5 ml centrifuge tube. The cells were immediately transferred to a 24-well plate. After an 1 hour incubation at 37° C. in a CO2 chamber, the cells were removed by centrifugation (4° C., 300× g, 10 minutes). Eosinophil cationic protein (ECP) in the supernatant was quantified by a double antibody radioimmunoassay (Pharmacia) following the manufacturer's protocol.
Degranulation of eosinophils was assayed by challenging freshly isolated eosinophils with PGD2 and measuring release of the eosinophil cationic protein (ECP) into the media using an ECP-specific radioimmunoassay.

[3] = test system: purified human eosinophils; experiment: In vitro eosinophil apoptosis assay (Annexin V/propidium iodide, flow cytometry); format: cell-based; details: for effect on eosinophil apoptosis / percentage of non-apoptotic eosinophils (result in words): 36 hours in culture, 1 μM, interleukin-5 at 1 ng/ml, FIG. 5
Experimental: Purified eosinophils were resuspended at 2.0×10^5 cells per ml in RPMI 1640 medium supplemented with 10% (v/v) fetal bovine serum, 2 mM glutamine, and 100 units of penicillin and streptomycin. Compounds to be tested were diluted 1:1000 to their final concentration and the cells were incubated at 37° C. in a CO2 chamber for 36 hours. The extent of apoptosis in the eosinophil population was evaluated using the TACS™ Annexin-V-FITC apoptosis detection kit (R&D systems). Non-apoptotic cells are not stained with either Annexin-V FITC or propidium iodide. Early apoptotic cells are stained with Annexin-V FITC but not propidium iodide (green fluorescence). Late apoptotic cells are stained with both Annexin-V FITC and propidium iodide (dual green and red fluorescence). Necrotic cells are only stained with propidium iodide (red fluoresecence). Labeled eosinophils were analyzed in a FACS Calibur system from Becton Dickinson.
The ability of PGD2 to modulate apoptosis in eosinophils was measured by quantifying the capacity of Annexin V to bind to phosphatidylserine on the outer membrane of apoptotic cells. (Koopman, et al., Blood 84:1415, 1994.) Necrotic cell death was determined by propidium iodide uptake. (Darzynkiewicz, et al., Cytometry 13:795, 1992.) Annexin V-FITC and propidium iodide staining of eosinophils was evaluated by FACS analysis.

[4] = test system: purified human eosinophils; experiment: Eosinophil chemokinesis (chemotactic chamber without chemoattractant in the lower chamber); format: cell-based; details: for stimulation of eosinophil chemokinesis (result in words): FIG. 3: BW245C 1 μM, DK-PGD2 100 nM, PAF 100 nM, IL-5 1 ng/ml, PGE2, fluprostenol and latanoprost 1 μM; for increase in eosinophil chemokinesis: data not shown
Experimental: Purified eosinophils were resuspended at 3.0×10^6 cells per ml in RPMI 1640 medium supplemented with 0.5% (v/v) fetal bovine serum. Compounds to be tested were added from 1000× concentrated stock solutions to 100 μl of cells in a 1.5 ml centrifuge tube and incubated at room temperature for 5 minutes. 100 μl of treated cells were then added to the top half of a chemotactic chamber (6.5 mm Transwell, 3.0 μm polycarbonate membrane from Costar) and 600 μl of RPMI, supplemented with 0.5% (v/v) fetal bovine serum, was added to the bottom chamber. After a 2 hour incubation at 37° C. in a CO2 chamber, the top chamber was discarded and the number of cells that had migrated to the lower chamber was evaluated by counting the cells using an hematocytometer. For each condition tested, the number of migrating eosinophils in two chemotactic chambers was averaged.
Chemokinesis was measured by incubating eosinophils with PGD2 for 5 minutes prior to their loading in the upper chamber of a chemotactic unit lacking a chemoattractant in the lower chamber. PGD2 at a concentration of […] increased eosinophil chemokinesis by 6-fold compared to cells treated with vehicle only (FIG. 3). PGD2 at concentrations of 10 nM and 1 μM increased eosinophil chemokinesis by a factor of 5 and 9-fold respectively (data not shown).

eosinophils = experiment: Eosinophil chemotaxis (agent in the bottom chamber of the chemotactic unit); format: cell-based, human; details: data not shown
Experimental: Chemotaxis was measured by adding PGD2 to the bottom chamber of a chemotactic unit containing eosinophils in the top chamber.

[5] = 15 minutes, FIG. 2: DK-PGD2 10 nM, PAF 100 nM, IL-5 1 ng/ml

For `O=C(O)CCCCCCC1C(=O)NC(=O)N1CCC(O)C1CCCCC1` (stereo not drawn) [BW245C], the “change in eosinophil morphology” value ([1]; concentrations as high as 1 μM, panel 2c) was “did not affect eosinophil shape”, the “release of ECP from eosinophils (result in words)” value ([2]; 1 hour) was “not BW245C, significantly increased the release of ECP” and the “increase in the percentage of non-apoptotic eosinophil” value ([3]; BW245C 1 μM, 36 hours, over vehicle treated population, 9 donors) was 17%. The “stimulation of eosinophil chemokinesis (result in words)” value (“stimulation of eosinophil chemokinesis” below) [4] was “not BW245C was effective in stimulating eosinophil chemokinesis”.

`CC(C)OC(=O)CCC/C=C\C[C@@H]1[C@@H](CC[C@@H](O)CCc2ccccc2)[C@H](O)C[C@@H]1O` [latanoprost] was tested, and the “change in eosinophil morphology” value ([1]; μM doses, data not shown) was “did not cause, even at μM doses, any alterations of eosinophil morphology”, the “effect on eosinophil apoptosis / percentage of non-apoptotic eosinophils (result in words)” value [3] was “not significant” and the “stimulation of eosinophil chemokinesis” value [4] was “failed to modulate eosinophil migration”.

`O=C(O)CCC/C=C\C[C@@H]1[C@@H](/C=C/[C@@H](O)COc2cccc(C(F)(F)F)c2)[C@H](O)C[C@@H]1O` (racemic) [fluprostenol] was tested, and the “change in eosinophil morphology” value ([1]; μM doses, data not shown) was “did not cause, even at μM doses, any alterations of eosinophil morphology”, the “effect on eosinophil apoptosis / percentage of non-apoptotic eosinophils (result in words)” value [3] was “not significant” and the “stimulation of eosinophil chemokinesis” value [4] was “failed to modulate eosinophil migration”.

For `CCCCC[C@H](O)/C=C/[C@H]1C(=O)C[C@H](O)[C@@H]1C/C=C\CCCC(=O)O` [PGD2, Prostanglandin D2], the “morphology change after a second PGD2 challenge” value ([1]; PGD2-treated eosinophils, data not shown) was “resistant to morphology changes after a second PGD2 challenge”, the “change in eosinophil morphology” value ([1]; PGD2 <10 nM, within minutes, n=20 donors) was “induced dramatic changes in cell morphology” and the “reversion of treated eosinophils to spherical shape” value ([1]; after PGD2 treatment) was “reverted to a spherical shape within six hours”. For the same molecule, the “release of ECP from eosinophils into the media” value ([2]; 10 to 100 nM, 1 hour, FIG. 4) was “significantly increased the release of ECP”, the “release of the granular protein EDN from eosinophils” value ([2]; after PGD2 challenge, data not shown) was “observed the release from eosinophils of another granular protein, EDN” and the “extent of ECP release relative to PAF” value ([2]; average over donors) was “about half that seen with PAF”. The “chemotactic (chemoattractant) effect on eosinophils” value (eosinophils; PGD2 added to the bottom chamber) was “not observed to exert a chemotatic effect; also recorded: did not attract eosinophils to the lower chamber”, the “chemotactic response of pre-incubated eosinophils to PAF or eotaxin” value (eosinophils; pre-incubation up to 1 μM for 5 minutes to 18 hours) was “did not have an altered chemotactic response” and the “effect on eosinophil apoptosis / percentage of non-apoptotic eosinophils (result in words)” value [3] was “weak inhibitor of apoptotic cell death”. For the same molecule, the “increase in eosinophil chemokinesis” value ([4]; 10 nM) was 5 fold, the “increase in eosinophil chemokinesis” value ([4]; 1 μM) was 9 fold and the “increase in eosinophil chemokinesis compared to cells treated with vehicle only” value ([4]; 100 mM (so in the source), 5 minutes pre-treatment, 2 hours migration, FIG. 3) was 6 fold. The “stimulation of eosinophil chemokinesis” value [4] was “increased cell motility in the absence of a chemical gradient”.

In the case of `CCCCCC(=O)CCC1C(=O)CC(O)C1C/C=C\CCCC(=O)O` (stereo not drawn) [DK-PGD2, 13,14-dihydro-15-keto-PGD2], the “change in eosinophil morphology” value [1, 5] is reported as “induced a morphological change identical to that observed with PGD2”, the “release of ECP from eosinophils (result in words)” value ([2]; 1 hour) is reported as “significantly increased the release of ECP” and the “effect on eosinophil apoptosis / percentage of non-apoptotic eosinophils (result in words)” value [3] is reported as “no significant effect”. The “stimulation of eosinophil chemokinesis” value [4] was “effective in stimulating eosinophil chemokinesis”.

“Il-5: Recombinant human interleukin-5 produced using a baculovirus system and purified by FPLC” was tested, and the “change in eosinophil morphology” value [1, 5] was “lead to a rapid change in eosinophil morphology”, the “effect on eosinophil apoptosis / percentage of non-apoptotic eosinophils (result in words)” value [3] was “increased the percentage of non-apoptotic eosinophils” and the “stimulation of eosinophil chemokinesis” value [4] was “able to stimulate eosinophil chemokinesis”.

In the case of `CCCCC[C@H](O)/C=C/[C@H]1[C@H](O)CC(=O)[C@@H]1C/C=C\CCCC(=O)O` [PGE2], the “change in eosinophil morphology” value ([1]; μM doses, data not shown) is reported as “did not cause, even at μM doses, any alterations of eosinophil morphology”, the “effect on eosinophil apoptosis / percentage of non-apoptotic eosinophils (result in words)” value [3] is reported as “increased the percentage of non-apoptotic eosinophils” and the “stimulation of eosinophil chemokinesis” value [4] is reported as “failed to modulate eosinophil migration”.
